The values that follow are results of earlier work, collected in US20020160961A1, “Compositions for the treatment of the catabolic state of prolonged critical illness” (priority 1999, published 2002).

The subject of the series is pulsatile TSH secretion. To be noted: TRH infused together with GHRP-2; catabolic state of prolonged critical illness.

Structures are written as SMILES.

Consider `NC(=O)[C@@H]1CCCN1C(=O)[C@H](Cc1cnc[nH]1)NC(=O)[C@@H]1CCC(=O)N1` [TRH, thyrotropin-releasing hormone], for which the “pulsatile TSH secretion” value is “increased pulsatile TSH secretion”.
